Measured values published in patent US20250270209A1 (INTERLINE THERAPEUTICS, INC., priority 2022, published 2025).
pIC50: −log10 of the molar value.

What was measured:
LRRK2 wild type enzyme = LRRK2 wild type enzyme (Homo sapiens, UniProt Q5S007); test: Biochemical Assay: LRRK2 TR-FRET (LanthaScreen) kinase assay with LRRKtide substrate; conditions: LRRK2 Inhibition, Table 8
Outline: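 TR-FRET detection (Tb-labelled phospho-LRRKtide antibody, EDTA stop, 30 min) followed a 120 min, 23 °C reaction of 3 nM wild-type human LRRK2 with LRRKtide (400 nM) and ATP (25 μM) in Tris pH 8.0. Compounds: 11-point 3-fold series from 10 μM, 15 min enzyme preincubation.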

[1] = molecular target: T1, wild type LRRK2 overexpressed in recombinant HEK-293T cells (Homo sapiens, UniProt Q5S007); test: pS935 LRRK2 Cell Assay (HTRF, phospho-LRRK2 Ser935); format: cell-based; conditions: LRRK2 Inhibition, Table 8, 2 hours compound incubation
T1 construct: host or cells: HEK293T (transient transfection with pCMV-LRRK2 WT plasmid)
T1 sequence (Q5S007 whole entry): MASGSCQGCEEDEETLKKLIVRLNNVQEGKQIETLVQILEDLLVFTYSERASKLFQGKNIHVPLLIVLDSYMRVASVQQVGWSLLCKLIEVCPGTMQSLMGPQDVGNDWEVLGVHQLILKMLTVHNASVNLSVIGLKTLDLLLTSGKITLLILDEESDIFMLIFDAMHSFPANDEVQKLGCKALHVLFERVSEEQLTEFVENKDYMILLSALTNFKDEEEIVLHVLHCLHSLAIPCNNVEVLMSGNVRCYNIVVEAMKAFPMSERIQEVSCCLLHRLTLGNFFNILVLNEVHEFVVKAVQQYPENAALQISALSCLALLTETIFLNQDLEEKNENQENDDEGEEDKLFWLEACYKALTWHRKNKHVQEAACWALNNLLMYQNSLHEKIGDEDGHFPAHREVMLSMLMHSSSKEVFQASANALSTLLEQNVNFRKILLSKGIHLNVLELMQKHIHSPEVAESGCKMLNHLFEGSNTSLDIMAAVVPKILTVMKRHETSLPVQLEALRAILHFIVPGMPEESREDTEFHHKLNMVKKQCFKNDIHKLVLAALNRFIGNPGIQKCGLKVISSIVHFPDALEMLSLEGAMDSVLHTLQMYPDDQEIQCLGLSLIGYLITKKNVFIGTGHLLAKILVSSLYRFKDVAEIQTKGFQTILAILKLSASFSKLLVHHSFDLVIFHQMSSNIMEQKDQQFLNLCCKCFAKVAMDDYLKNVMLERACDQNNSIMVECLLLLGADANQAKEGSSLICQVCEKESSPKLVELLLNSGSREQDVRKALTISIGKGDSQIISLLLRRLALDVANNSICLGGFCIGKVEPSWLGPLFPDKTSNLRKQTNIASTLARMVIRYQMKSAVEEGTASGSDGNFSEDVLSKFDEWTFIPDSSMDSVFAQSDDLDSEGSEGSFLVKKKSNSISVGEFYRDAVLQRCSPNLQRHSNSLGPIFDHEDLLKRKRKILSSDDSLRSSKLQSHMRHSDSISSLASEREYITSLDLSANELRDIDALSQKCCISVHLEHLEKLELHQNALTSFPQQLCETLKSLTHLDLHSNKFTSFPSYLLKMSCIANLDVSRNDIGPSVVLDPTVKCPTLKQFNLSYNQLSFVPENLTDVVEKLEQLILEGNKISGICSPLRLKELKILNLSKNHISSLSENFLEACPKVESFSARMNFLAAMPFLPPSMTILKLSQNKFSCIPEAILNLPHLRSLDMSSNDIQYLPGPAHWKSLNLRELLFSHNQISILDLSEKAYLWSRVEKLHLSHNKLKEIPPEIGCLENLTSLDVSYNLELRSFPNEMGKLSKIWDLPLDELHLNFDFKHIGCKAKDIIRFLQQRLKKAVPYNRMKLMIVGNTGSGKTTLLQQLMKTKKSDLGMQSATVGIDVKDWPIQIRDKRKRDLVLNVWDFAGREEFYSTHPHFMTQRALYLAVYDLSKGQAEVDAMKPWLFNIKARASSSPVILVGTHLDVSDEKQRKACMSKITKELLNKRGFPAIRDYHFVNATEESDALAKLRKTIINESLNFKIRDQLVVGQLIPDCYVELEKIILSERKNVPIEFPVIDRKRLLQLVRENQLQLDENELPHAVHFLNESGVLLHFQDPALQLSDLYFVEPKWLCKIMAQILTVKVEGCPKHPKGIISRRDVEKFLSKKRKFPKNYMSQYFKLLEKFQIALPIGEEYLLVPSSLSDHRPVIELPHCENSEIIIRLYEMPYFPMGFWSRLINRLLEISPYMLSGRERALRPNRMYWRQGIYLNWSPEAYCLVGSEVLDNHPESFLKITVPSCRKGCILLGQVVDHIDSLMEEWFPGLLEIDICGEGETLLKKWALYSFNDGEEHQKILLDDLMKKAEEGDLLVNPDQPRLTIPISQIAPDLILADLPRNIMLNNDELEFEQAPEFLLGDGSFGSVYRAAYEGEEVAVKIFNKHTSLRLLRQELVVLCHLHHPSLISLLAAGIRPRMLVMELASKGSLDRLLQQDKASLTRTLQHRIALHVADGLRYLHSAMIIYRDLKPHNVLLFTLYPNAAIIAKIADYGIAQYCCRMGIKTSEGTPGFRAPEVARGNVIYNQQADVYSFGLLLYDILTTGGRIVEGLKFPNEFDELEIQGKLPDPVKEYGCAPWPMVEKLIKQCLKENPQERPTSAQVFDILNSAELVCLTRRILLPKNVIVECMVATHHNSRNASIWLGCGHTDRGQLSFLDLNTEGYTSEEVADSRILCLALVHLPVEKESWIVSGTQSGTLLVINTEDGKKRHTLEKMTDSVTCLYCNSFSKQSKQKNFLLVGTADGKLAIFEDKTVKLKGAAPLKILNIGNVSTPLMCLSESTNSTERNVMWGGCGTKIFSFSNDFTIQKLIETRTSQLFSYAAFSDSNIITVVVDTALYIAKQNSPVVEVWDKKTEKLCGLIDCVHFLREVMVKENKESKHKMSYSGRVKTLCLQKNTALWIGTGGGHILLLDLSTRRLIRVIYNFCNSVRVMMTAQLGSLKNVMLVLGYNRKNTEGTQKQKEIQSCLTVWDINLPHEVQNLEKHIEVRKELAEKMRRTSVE
Outline: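 Phospho-Ser935 LRRK2 measured by two-antibody HTRF (Eu-cryptate donor, d2 acceptor; 665/615 nm ratio) after overnight detection at 23° C. Before lysis, transiently LRRK2-transfected HEK-293T cells were exposed 2 h at 37° C to a 9-point, 3-fold series from 10 μM, with DMSO at 0.2%.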

Sequence of LRRK2 wild type enzyme (Q5S007 whole entry): as above

Row | Structure (SMILES) | pIC50 (LRRK2 wild type enzyme) | pIC50 [1]
1 | Cc1noc(C)c1NC(=O)Cc1nc2cnc3ccc(C#N)cc3c2n1[C@@H]1CCO[C@H](C)C1 [Compound 201, N-(3,5-dimethyl-4-isoxazolyl){3-[(2R,4R)-2-methyltetrahydro-2H-pyran-4-yl]-12-cyano-3,5,8-triazatricyclo[7.4.0.0^2,6]trideca-1,4,6,8,10,12-hexaen-4-yl}acetamide] | 9.42 | 7.94
2 | COc1nccc(F)c1NC(=O)Cc1nc2cnc3ccc(C#N)cc3c2n1[C@@H]1CCO[C@H](C)C1 [Compound 202, N-(4-fluoro-2-methoxy-3-pyridyl){3-[(2R,4R)-2-methyltetrahydro-2H-pyran-4-yl]-12-cyano-3,5,8-triazatricyclo[7.4.0.0^2,6]trideca-1,4,6,8,10,12-hexaen-4-yl}acetamide] | 9.44 | 8.07
3 | COc1nc(C)nc(C)c1NC(=O)Cc1nc2cnc3ccc(C#N)cc3c2n1[C@@H]1CCO[C@H](C)C1 [Compound 203, N-(4-methoxy-2,6-dimethyl-5-pyrimidinyl){3-[(2R,4R)-2-methyltetrahydro-2H-pyran-4-yl]-12-cyano-3,5,8-triazatricyclo[7.4.0.0^2,6]trideca-1,4,6,8,10,12-hexaen-4-yl}acetamide] | 9.47 | 6.87
4 | COc1ncnc(C)c1NC(=O)Cc1nc2cnc3ccc(C#N)cc3c2n1[C@@H]1CCO[C@H](C)C1 [Compound 204, N-(4-methoxy-6-methyl-5-pyrimidinyl){3-[(2R,4R)-2-methyltetrahydro-2H-pyran-4-yl]-12-cyano-3,5,8-triazatricyclo[7.4.0.0^2,6]trideca-1,4,6,8,10,12-hexaen-4-yl}acetamide] | 9.33 | 8.18
5 | Cc1cc(F)ncc1NC(=O)Cc1nc2cnc3ccc(C#N)cc3c2n1[C@@H]1CCO[C@H](C)C1 [Compound 205, N-(6-fluoro-4-methyl-3-pyridyl){3-[(2R,4R)-2-methyltetrahydro-2H-pyran-4-yl]-12-cyano-3,5,8-triazatricyclo[7.4.0.0^2,6]trideca-1,4,6,8,10,12-hexaen-4-yl}acetamide] | 9.41 | 7.95
6 | C[C@@H]1C[C@H](n2c(CC(=O)Nc3cnn(C)c(=O)c3)nc3cnc4ccc(Cl)cc4c32)CCO1 [Compound 206, N-(1-methyl-6-oxo-1,6-dihydro-4-pyridazinyl){3-[(2R,4R)-2-methyltetrahydro-2H-pyran-4-yl]-12-chloro-3,5,8-triazatricyclo[7.4.0.0^2,6]trideca-1,4,6,8,10,12-hexaen-4-yl}acetamide] | 9.32 | 8.08
7 | Cc1ncnc(C)c1NC(=O)Cc1nc2cnc3ccc(Cl)cc3c2n1[C@@H]1CCO[C@H](C)C1 [Compound 207, N-(4,6-dimethyl-5-pyrimidinyl){3-[(2R,4R)-2-methyltetrahydro-2H-pyran-4-yl]-12-chloro-3,5,8-triazatricyclo[7.4.0.0^2,6]trideca-1,4,6,8,10,12-hexaen-4-yl}acetamide] | 9.48 | 8.12
8 | C[C@@H]1C[C@H](n2c(CC(=O)Nc3cnccc3O)nc3cnc4ccc(C#N)cc4c32)CCO1 [Compound 208, N-(4-hydroxy-3-pyridyl){3-[(2R,4R)-2-methyltetrahydro-2H-pyran-4-yl]-12-cyano-3,5,8-triazatricyclo[7.4.0.0^2,6]trideca-1,4,6,8,10,12-hexaen-4-yl}acetamide] | 9.24 | 5.31
9 | Cc1oncc1NC(=O)Cc1nc2cnc3ccc(C#N)cc3c2n1[C@@H]1CCO[C@H](C)C1 [Compound 209, N-(5-methyl-4-isoxazolyl){3-[(2R,4R)-2-methyltetrahydro-2H-pyran-4-yl]-12-cyano-3,5,8-triazatricyclo[7.4.0.0^2,6]trideca-1,4,6,8,10,12-hexaen-4-yl}acetamide] | 9.37 | 7.88
10 | Cc1ccnc(C)c1NC(=O)Cc1nc2cnc3ccc(Cl)cc3c2n1[C@@H]1CCO[C@H](C)C1 [Compound 210, N-(2,4-dimethyl-3-pyridyl){3-[(2R,4R)-2-methyltetrahydro-2H-pyran-4-yl]-12-chloro-3,5,8-triazatricyclo[7.4.0.0^2,6]trideca-1,4,6,8,10,12-hexaen-4-yl}acetamide] | 9.42 | 8.11
11 | C[C@@H]1C[C@H](n2c(CC(=O)Nc3cncnc3O)nc3cnc4ccc(C#N)cc4c32)CCO1 [Compound 211, N-(4-hydroxy-5-pyrimidinyl){3-[(2R,4R)-2-methyltetrahydro-2H-pyran-4-yl]-12-cyano-3,5,8-triazatricyclo[7.4.0.0^2,6]trideca-1,4,6,8,10,12-hexaen-4-yl}acetamide] | 9.32 | 5.77
12 | C[C@@H]1C[C@H](n2c(CC(=O)Nc3ccn(C)c(=O)c3)nc3cnc4ccc(Cl)cc4c32)CCO1 [Compound 212, N-(1-methyl-2-oxo-1,2-dihydro-4-pyridyl){3-[(2R,4R)-2-methyltetrahydro-2H-pyran-4-yl]-12-chloro-3,5,8-triazatricyclo[7.4.0.0^2,6]trideca-1,4,6,8,10,12-hexaen-4-yl}acetamide] | 9.48 | 7.94
13 | COc1cc(C2CC2)ncc1NC(=O)Cc1nc2cnc3ccc(C#N)cc3c2n1[C@@H]1CCO[C@H](C)C1 [Compound 213, N-(6-cyclopropyl-4-methoxy-3-pyridyl){3-[(2R,4R)-2-methyltetrahydro-2H-pyran-4-yl]-12-cyano-3,5,8-triazatricyclo[7.4.0.0^2,6]trideca-1,4,6,8,10,12-hexaen-4-yl}acetamide] | 9.39 | 8.40
14 | Cc1cc(NC(=O)Cc2nc3cnc4ccc(C#N)cc4c3n2[C@@H]2CCO[C@H](C)C2)c(=O)n(C)n1 [Compound 214, N-(2-methyl-6-methyl-3-oxo-2,3-dihydro-4-pyridazinyl){3-[(2R,4R)-2-methyltetrahydro-2H-pyran-4-yl]-12-cyano-3,5,8-triazatricyclo[7.4.0.0^2,6]trideca-1,4,6,8,10,12-hexaen-4-yl}acetamide] | 9.53 | 7.99
15 | C[C@@H]1C[C@H](n2c(CC(=O)Nc3ccnn(C)c3=O)nc3cnc4ccc(C#N)cc4c32)CCO1 [Compound 215, N-(2-methyl-3-oxo-2,3-dihydro-4-pyridazinyl){3-[(2R,4R)-2-methyltetrahydro-2H-pyran-4-yl]-12-cyano-3,5,8-triazatricyclo[7.4.0.0^2,6]trideca-1,4,6,8,10,12-hexaen-4-yl}acetamide] | 9.36 | 8.23
16 | Cc1ncncc1NC(=O)Cc1nc2cnc3ccc(C#N)cc3c2n1[C@@H]1CCO[C@H](C)C1 [Compound 216, N-(4-methyl-5-pyrimidinyl){3-[(2R,4R)-2-methyltetrahydro-2H-pyran-4-yl]-12-cyano-3,5,8-triazatricyclo[7.4.0.0^2,6]trideca-1,4,6,8,10,12-hexaen-4-yl}acetamide] | 9.37 | 7.91
17 | Cc1nc(C)c(NC(=O)Cc2nc3cnc4ccc(Cl)cc4c3n2[C@@H]2CCO[C@H](C)C2)c(C)n1 [Compound 217, N-(2,4,6-trimethyl-5-pyrimidinyl){3-[(2R,4R)-2-methyltetrahydro-2H-pyran-4-yl]-12-chloro-3,5,8-triazatricyclo[7.4.0.0^2,6]trideca-1,4,6,8,10,12-hexaen-4-yl}acetamide] | 9.53 | 8.26
18 | C[C@@H]1C[C@H](n2c(CC(=O)Nc3cccnc3O)nc3cnc4ccc(C#N)cc4c32)CCO1 [Compound 218, N-(2-hydroxy-3-pyridyl){3-[(2R,4R)-2-methyltetrahydro-2H-pyran-4-yl]-12-cyano-3,5,8-triazatricyclo[7.4.0.0^2,6]trideca-1,4,6,8,10,12-hexaen-4-yl}acetamide] | 9.35 | 7.08
19 | C[C@@H]1C[C@H](n2c(CC(=O)Nc3ccc(=O)n(C)c3)nc3cnc4ccc(Cl)cc4c32)CCO1 [Compound 219, N-(1-methyl-6-oxo-1,6-dihydro-3-pyridyl){3-[(2R,4R)-2-methyltetrahydro-2H-pyran-4-yl]-12-chloro-3,5,8-triazatricyclo[7.4.0.0^2,6]trideca-1,4,6,8,10,12-hexaen-4-yl}acetamide] | 9.63 | 7.80
20 | C[C@@H]1C[C@H](n2c(CC(=O)Nc3cnc(C(F)(F)F)n(C)c3=O)nc3cnc4ccc(C#N)cc4c32)CCO1 [Compound 220, N-[1-methyl-6-oxo-2-(trifluoromethyl)-1,6-dihydro-5-pyrimidinyl]{3-[(2R,4R)-2-methyltetrahydro-2H-pyran-4-yl]-12-cyano-3,5,8-triazatricyclo[7.4.0.0^2,6]trideca-1,4,6,8,10,12-hexaen-4-yl}acetamide] | 9.35 | 8.37
21 | C[C@@H]1C[C@H](n2c(CC(=O)Nc3ccc(C(F)(F)F)n(C)c3=O)nc3cnc4ccc(C#N)cc4c32)CCO1 [Compound 221, N-[1-methyl-2-oxo-6-(trifluoromethyl)-1,2-dihydro-3-pyridyl]{3-[(2R,4R)-2-methyltetrahydro-2H-pyran-4-yl]-12-cyano-3,5,8-triazatricyclo[7.4.0.0^2,6]trideca-1,4,6,8,10,12-hexaen-4-yl}acetamide] | 9.28 | 8.24
22 | COc1nnccc1NC(=O)Cc1nc2cnc3ccc(C#N)cc3c2n1[C@@H]1CCO[C@H](C)C1 [Compound 222, N-(3-methoxy-4-pyridazinyl){3-[(2R,4R)-2-methyltetrahydro-2H-pyran-4-yl]-12-cyano-3,5,8-triazatricyclo[7.4.0.0^2,6]trideca-1,4,6,8,10,12-hexaen-4-yl}acetamide] | 9.58 | 8.54
